Turning to `CC1=C(Nc2ccc(S(=O)(=O)Nc3ccccn3)cc2)C(=O)c2ccccc2C1=O` [Compound 2k, 4-(3-methyl-1,4-dioxo-1,4-dihydronaphthalen-2-ylamino)-N-(pyridin-2-yl)benzenesulfonamide], the melting point – broadly, the temperature, or range, at which the solid turns liquid – was 220 to 222 °C. As for `CCCCN(C1=C(Cl)C(=O)c2ccccc2C1=O)c1ccc(S(=O)(=O)Nc2ccccn2)cc1` [Compound 6c, 4-(butyl(3-chloro-1,4-dioxo-1,4-dihydronaphthalen-2-yl)amino)-N-(pyridin-2-yl)benzenesulfonamide], the melting point lay within 181 to 183 °C. To `Cc1ccc(NS(=O)(=O)c2ccc(NC3=C(Cl)C(=O)c4ccccc4C3=O)cc2)cc1` [Compound 13g, 4-(3-chloro-1,4-dioxo-1,4-dihydro-naphthalen-2-ylamino)-N-p-tolyl-benzenesulfonamide] belongs 257 to 260 °C; to `O=C1C(Cl)=C(N(Cc2ccc(C(F)(F)F)cc2)c2ccc(S(=O)(=O)Nc3ccccn3)cc2)C(=O)c2ccccc21` [Compound 6h, 4-((3-chloro-1,4-dioxo-1,4-dihydronaphthalen-2-yl)(4-(trifluoromethyl)benzyl)amino)-N-(pyridin-2-yl)benzenesulfonamide], 157 to 159 °C. `CC1=C(Nc2ccc(S(=O)(=O)NC(=O)c3ccccc3)cc2)C(=O)c2ccccc2C1=O` [Compound 2l, N-(4-(3-methyl-1,4-dioxo-1,4-dihydronaphthalen-2-ylamino)phenylsulfonyl)benzamide] came in with a melting point of 235 to 237 °C.

Consider `COc1cccc(NS(=O)(=O)c2ccc(NC3=C(Cl)C(=O)c4ccccc4C3=O)cc2)c1` [Compound 13e, 4-(3-chloro-1,4-dioxo-1,4-dihydro-naphthalen-2-ylamino)-N-(3-methoxy-phenyl)-benzenesulfonamide], for which the melting point lay in the range of 213 to 216 °C. Consider `O=C1C=C(Nc2ccc(S(=O)(=O)Nc3ccccn3)cc2)C(=O)c2ccccc21` [Compound 2r, 4-(1,4-dioxo-1,4-dihydronaphthalen-2-ylamino)-N-(pyridin-2-yl)benzenesulfonamide], for which the melting point is 286 °C (dec.). On to `Cc1cc(C)nc(NS(=O)(=O)c2ccc(NC3=C(Cl)C(=O)c4ccccc4C3=O)cc2)n1` [Compound 2g, 4-(3-chloro-1,4-dioxo-1,4-dihydronaphthalen-2-ylamino)-N-(4,6-dimethylpyrimidin-2-yl)benzenesulfonamide], for which the melting point was 210 °C (dec.). `O=C1C(Cl)=C(N(Cc2ccccc2)c2ccc(S(=O)(=O)Nc3ccccn3)cc2)C(=O)c2ccccc21` [Compound 6d, 4-(benzyl(3-chloro-1,4-dioxo-1,4-dihydronaphthalen-2-yl)amino)-N-(pyridin-2-yl)benzenesulfonamide]: the melting point fell in the range of 78 to 80 °C. In turn, `CCN(C1=C(Cl)C(=O)c2ccccc2C1=O)c1ccc(S(=O)(=O)Nc2ccccn2)cc1` [Compound 6b, 4-((3-chloro-1,4-dioxo-1,4-dihydronaphthalen-2-yl)(ethyl)amino)-N-(pyridin-2-yl)benzenesulfonamide] registered a melting point of 180 to 182 °C. Take `COc1cnc(NS(=O)(=O)c2ccc(NC3=C(C)C(=O)c4ccccc4C3=O)cc2)nc1` [Compound 2m, N-(5-methoxypyrimidin-2-yl)-4-(3-methyl-1,4-dioxo-1,4-dihydronaphthalen-2-ylamino)-benzenesulfonamide]: the melting point is 215 to 217 °C.

For `COc1cc(NS(=O)(=O)c2ccc(NC3=C(C)C(=O)c4ccccc4C3=O)cc2)nc(OC)n1` [Compound 2n, N-(2,6-dimethoxypyrimidin-4-yl)-4-(3-methyl-1,4-dioxo-1,4-dihydronaphthalen-2-ylamino)-benzenesulfonamide], the melting point was in the range of 255 to 257 °C. `COc1cc(NS(=O)(=O)c2ccc(NC3=C(Cl)C(=O)c4ccccc4C3=O)cc2)nc(OC)n1` [Compound 2i, 4-(3-chloro-1,4-dioxo-1,4-dihydronaphthalen-2-ylamino)-N-(2,6-dimethoxypyrimidin-4-yl)-benzenesulfonamide]: the melting point lay in the range of 220 to 222 °C. Consider `CN(C)C1=C(Nc2ccc(S(=O)(=O)Nc3ccccn3)cc2)C(=O)c2ccccc2C1=O` [Compound 3a, 4-(3-(dimethylamino)-1,4-dioxo-1,4-dihydronaphthalen-2-ylamino)-N-(pyridin-2-yl)-benzenesulfonamide], for which the melting point lay in the range of 118 to 120 °C. In turn, `COc1cc(NC2=C(Cl)C(=O)c3ccccc3C2=O)ccc1S(=O)(=O)Nc1ccc(C)cc1` [Compound 13i, 4-(3-chloro-1,4-dioxo-1,4-dihydro-naphthalen-2-ylamino)-2-methoxy-N-p-tolyl-benzenesulfonamide] displayed a melting point of 186 to 189 °C. `COc1cnc(NS(=O)(=O)c2ccc(NC3=C(Cl)C(=O)c4ccccc4C3=O)cc2)nc1` [Compound 2e, 4-(3-chloro-1,4-dioxo-1,4-dihydronaphthalen-2-ylamino)-N-(5-methoxypyrimidin-2-yl)benzenesulfonamide] came in with a melting point of 269 to 271 °C. On to `COc1cc(NC2=C(Cl)C(=O)c3ccccc3C2=O)ccc1S(=O)(=O)Nc1ccccc1C` [Compound 13h, 4-(3-chloro-1,4-dioxo-1,4-dihydro-naphthalen-2-ylamino)-2-methoxy-N-o-tolyl-benzenesulfonamide], for which the melting point is 197 to 200 °C. For `COc1ccccc1NS(=O)(=O)c1ccc(NC2=C(Cl)C(=O)c3ccccc3C2=O)cc1` [Compound 13d, 4-(3-chloro-1,4-dioxo-1,4-dihydro-naphthalen-2-ylamino)-N-(2-methoxy-phenyl)-benzenesulfonamide], the melting point lay within 198 to 201 °C. On to `COc1ccc(NS(=O)(=O)c2ccc(NC3=C(Cl)C(=O)c4ccccc4C3=O)cc2OC)cc1` [Compound 13j, 4-(3-chloro-1,4-dioxo-1,4-dihydro-naphthalen-2-ylamino)-2-methoxy-N-(4-methoxy-phenyl)-benzenesulfonamide], for which the melting point lay in the range of 165 to 167 °C.

For `O=C1C(Cl)=C(N(Cc2ccc3ccccc3c2)c2ccc(S(=O)(=O)Nc3ccccn3)cc2)C(=O)c2ccccc21` [Compound 6f, 4-((3-chloro-1,4-dioxo-1,4-dihydronaphthalen-2-yl)(naphthalen-2-ylmethyl)amino)-N-(pyridin-2-yl)benzenesulfonamide], the melting point lay in the range of 165 to 167 °C. For `CN1CCN(C2=C(Nc3ccc(S(=O)(=O)Nc4ccccn4)cc3)C(=O)c3ccccc3C2=O)CC1` [Compound 3c, 4-(3-(4-methylpiperazin-1-yl)-1,4-dioxo-1,4-dihydronaphthalen-2-ylamino)-N-(pyridin-2-yl)-benzenesulfonamide], the melting point lay in the range of 222 to 224 °C. The figure for `Cc1ccc(CN(C2=C(Cl)C(=O)c3ccccc3C2=O)c2ccc(S(=O)(=O)Nc3ccccn3)cc2)cc1` [Compound 6g, 4-((3-chloro-1,4-dioxo-1,4-dihydronaphthalen-2-yl)(4-methylbenzyl)amino)-N-(pyridin-2-yl)benzenesulfonamide] is 99 to 101 °C. Turning to `CN(Cc1ccccc1)C1=C(Nc2ccc(S(=O)(=O)Nc3ccccn3)cc2)C(=O)c2ccccc2C1=O` [Compound 3b, 4-(3-(benzyl(methyl)amino)-1,4-dioxo-1,4-dihydronaphthalen-2-ylamino)-N-(pyridin-2-yl)-benzenesulfonamide], the melting point was 135 to 140 °C.

Source of the values: patent US8673910B2, “Proteasome inhibitors for selectively inducing apoptosis in cancer cells” (H. Lee Moffitt Cancer Center and Research Institute, priority 2008, dated 2014).
